Experimental data taken from ChEMBL document CHEMBL1201862, “PubChem BioAssay data set” (2004).
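96-well plates; 48 h exposure; 5 concentrations. Endpoints by linear interpolation between flanking doses. Not reached: highest tested concentration assigned. GI50 is the concentration that inhibits growth by half.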 Calls of active or inactive are those of the source. Cut-off read from the data, not from the text of the source: active = GI50 up to about 1.1 µM and inactive = higher.

Key:
Assay in all cases: NCI-60 cell line screen, 48 h
KM12 = tested on: KM12
XF498 = tested on: XF498
RPMI-8226 = tested on: RPMI-8226
U-251 = tested on: U-251
OVCAR-5 = tested on: OVCAR-5
HCC 2998 = tested on: HCC 2998
CCRF-CEM = tested on: CCRF-CEM
HOP-92 = tested on: HOP-92
A549 = tested on: A549
LOX IMVI = tested on: LOX IMVI
HL-60 = tested on: HL-60
SK-MEL-5 = tested on: SK-MEL-5
NCI-H522 = tested on: NCI-H522
HOP-18 = tested on: HOP-18
MCF7 = tested on: MCF7
OVCAR-4 = tested on: OVCAR-4
SN12C = tested on: SN12C
OVCAR-3 = tested on: OVCAR-3
SNB-75 = tested on: SNB-75
SK-MEL-2 = tested on: SK-MEL-2
SF-539 = tested on: SF-539
M19-MEL = tested on: M19-MEL
UO-31 = tested on: UO-31
DLD-1 = tested on: DLD-1
EKVX = tested on: EKVX
SK-MEL-28 = tested on: SK-MEL-28
NCI-H460 = tested on: NCI-H460
NCI-H226 = tested on: NCI-H226
K562 = tested on: K562
HCT-116 = tested on: HCT-116
NCI-H23 = tested on: NCI-H23
UACC-257 = tested on: UACC-257
KM-20L2 = tested on: KM-20L2
RXF 393 = tested on: RXF 393
MOLT-4 = tested on: MOLT-4
HT-29 = tested on: HT-29
SNB-19 = tested on: SNB-19
IGROV-1 = tested on: IGROV-1
SW-620 = tested on: SW-620
CAKI-1 = tested on: CAKI-1
A498 = tested on: A498
NCI/ADR-RES = tested on: NCI/ADR-RES
OVCAR-8 = tested on: OVCAR-8
SF-295 = tested on: SF-295
SK-OV-3 = tested on: SK-OV-3
SNB-78 = tested on: SNB-78
Malme-3M = tested on: Malme-3M
HCT-15 = tested on: HCT-15
UACC-62 = tested on: UACC-62
COLO 205 = tested on: COLO 205
HOP-62 = tested on: HOP-62
DMS-273 = tested on: DMS-273
SF-268 = tested on: SF-268
DMS-114 = tested on: DMS-114
ACHN = tested on: ACHN
SR = tested on: SR
M14 = tested on: M14
TK-10 = tested on: TK-10
LXFL 529 = tested on: LXFL 529
PC-3 = tested on: PC-3
DU-145 = tested on: DU-145
786-0 = tested on: 786-0

SMILES: CN(C)CCOc1cc2c(c3ccccc13)-c1ccccc1C2=O
- GI50 (KM12): 1.46 µM (inactive)
- GI50 (XF498): 1.6 µM (inactive)
- GI50 (RPMI-8226): 1.56 µM (inactive)
- GI50 (U-251): 2.16 µM (inactive)
- GI50 (OVCAR-5): 2.47 µM (inactive)
- GI50 (HCC 2998): 1.75 µM (inactive)
- GI50 (CCRF-CEM): 1.52 µM (inactive)
- GI50 (HOP-92): 0.933 µM (active)
- GI50 (A549): 9.62 µM (inactive)
- GI50 (LOX IMVI): 1.05 µM (active)
- GI50 (HL-60): 1.24 µM (inactive)
- GI50 (SK-MEL-5): 1.58 µM (inactive)
- GI50 (NCI-H522): 1.32 µM (inactive)
- GI50 (HOP-18): 2.07 µM (inactive)
- GI50 (MCF7): 1.1 µM (active)
- GI50 (OVCAR-4): 1.12 µM (active)
- GI50 (SN12C): 1.58 µM (inactive)
- GI50 (OVCAR-3): 1.9 µM (inactive)
- GI50 (SNB-75): 1.8 µM (inactive)
- GI50 (SK-MEL-2): 1.95 µM (inactive)
- GI50 (SF-539): 1.76 µM (inactive)
- GI50 (M19-MEL): 1.35 µM (inactive)
- GI50 (UO-31): 1.5 µM (inactive)
- GI50 (DLD-1): 1.15 µM (inactive)
- GI50 (EKVX): 4.91 µM (inactive)
- GI50 (SK-MEL-28): 1.8 µM (inactive)
- GI50 (NCI-H460): 0.675 µM (active)
- GI50 (NCI-H226): 1.95 µM (inactive)
- GI50 (K562): 1.74 µM (inactive)
- GI50 (HCT-116): 1.03 µM (active)
- GI50 (NCI-H23): 2.36 µM (inactive)
- GI50 (UACC-257): 1.72 µM (inactive)
- GI50 (KM-20L2): 2.1 µM (inactive)
- GI50 (RXF 393): 2.86 µM (inactive)
- GI50 (MOLT-4): 0.339 µM (active)
- GI50 (HT-29): 1.19 µM (inactive)
- GI50 (SNB-19): 2.7 µM (inactive)
- GI50 (IGROV-1): 1.88 µM (inactive)
- GI50 (SW-620): 1.39 µM (inactive)
- GI50 (CAKI-1): 0.388 µM (active)
- GI50 (A498): 6.68 µM (inactive)
- GI50 (NCI/ADR-RES): 0.818 µM (active)
- GI50 (OVCAR-8): 0.895 µM (active)
- GI50 (SF-295): 1.71 µM (inactive)
- GI50 (SK-OV-3): 7.53 µM (inactive)
- GI50 (SNB-78): 6.03 µM (inactive)
- GI50 (Malme-3M): 2.19 µM (inactive)
- GI50 (HCT-15): 1.18 µM
- GI50 (UACC-62): 1.8 µM (inactive)
- GI50 (COLO 205): 1.92 µM (inactive)
- GI50 (HOP-62): 1.19 µM (inactive)
- GI50 (DMS-273): 0.531 µM (active)
- GI50 (SF-268): 1.45 µM (inactive)
- GI50 (DMS-114): 1.09 µM (active)

SMILES: O=CN/C=C/c1cc(O)ccc1O [ERBSTATIN]
- GI50 (KM12): > 89.3 µM (inactive)
- GI50 (XF498): 19.8 µM (inactive)
- GI50 (RPMI-8226): 26.3 µM (inactive)
- GI50 (ACHN): 14.8 µM (inactive)
- GI50 (SR): 4.39 µM (inactive)
- GI50 (U-251): 42.3 µM (inactive)
- GI50 (OVCAR-5): > 85.7 µM (inactive)
- GI50 (HCC 2998): > 100 µM (inactive)
- GI50 (CCRF-CEM): 4.11 µM (inactive)
- GI50 (HOP-92): 11.6 µM (inactive)
- GI50 (A549): > 65.6 µM (inactive)
- GI50 (LOX IMVI): 14 µM (inactive)
- GI50 (M14): 14.9 µM (inactive)
- GI50 (HL-60): 5.14 µM (inactive)
- GI50 (SK-MEL-5): 18.7 µM (inactive)
- GI50 (NCI-H522): 4.6 µM (inactive)
- GI50 (HOP-18): > 40.6 µM (inactive)
- GI50 (MCF7): 11.3 µM (inactive)
- GI50 (OVCAR-4): 17.8 µM (inactive)
- GI50 (SN12C): 16.7 µM (inactive)
- GI50 (OVCAR-3): 9.35 µM (inactive)
- GI50 (SNB-75): 62.4 µM (inactive)
- GI50 (SK-MEL-2): 29.3 µM (inactive)
- GI50 (SF-539): 22.7 µM (inactive)
- GI50 (M19-MEL): 13.3 µM (inactive)
- GI50 (UO-31): 29.7 µM (inactive)
- GI50 (DLD-1): 16 µM (inactive)
- GI50 (EKVX): 18.6 µM (inactive)
- GI50 (SK-MEL-28): 23.4 µM (inactive)
- GI50 (NCI-H460): 56.2 µM (inactive)
- GI50 (NCI-H226): 44 µM (inactive)
- GI50 (K562): 14.8 µM (inactive)
- GI50 (TK-10): 17 µM (inactive)
- GI50 (HCT-116): 15.7 µM (inactive)
- GI50 (LXFL 529): 11.6 µM (inactive)
- GI50 (NCI-H23): 18.8 µM (inactive)
- GI50 (UACC-257): 13.5 µM (inactive)
- GI50 (KM-20L2): 52.2 µM (inactive)
- GI50 (RXF 393): 13 µM (inactive)
- GI50 (MOLT-4): 22.9 µM (inactive)
- GI50 (HT-29): 22.2 µM (inactive)
- GI50 (SNB-19): > 66.7 µM (inactive)
- GI50 (IGROV-1): 26.2 µM (inactive)
- GI50 (SW-620): 8.75 µM (inactive)
- GI50 (CAKI-1): 12.4 µM (inactive)
- GI50 (A498): 59.7 µM (inactive)
- GI50 (PC-3): > 100 µM (inactive)
- GI50 (NCI/ADR-RES): 18.1 µM (inactive)
- GI50 (OVCAR-8): 17.8 µM (inactive)
- GI50 (SF-295): 58.1 µM (inactive)
- GI50 (SK-OV-3): > 62.4 µM (inactive)
- GI50 (DU-145): 30.1 µM (inactive)
- GI50 (SNB-78): 19 µM (inactive)
- GI50 (Malme-3M): 17.9 µM (inactive)
- GI50 (HCT-15): 13.3 µM
- GI50 (UACC-62): 13.7 µM (inactive)
- GI50 (COLO 205): 11.9 µM (inactive)
- GI50 (HOP-62): > 74.1 µM (inactive)
- GI50 (786-0): 14 µM (inactive)
- GI50 (DMS-273): 77.1 µM (inactive)
- GI50 (SF-268): 17.2 µM (inactive)
- GI50 (DMS-114): 17.6 µM (inactive)
